Reference: patent US12325697B2 (Nimbus Clio, Inc., priority 2021, dated 2025)

What was measured:
[1] = biological target: Recombinant human Cbl-b (aa 36-427) (Homo sapiens (Human), UniProt Q13191); assay: Cbl-b Biochemical Assay (TR-FRET); conditions: read-out: TR-FRET hCbl-b IC50
Procedure, shortened: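 Two-step TR-FRET: 6 nM biotinylated Cbl-b preincubated 30-60 min with compound, then 60 min at RT with 1-2.5 nM Src-Zap70 and 0.5 mM ATP in HEPES pH 7.0 buffer, 1% DMSO. Stopped with 5 mM EDTA plus 100 nM UBE2D2-Ub-FL-BODIPY and 1 nM streptavidin-Tb, 60 min; 520 nm signal; IC50 from 4-parameter fit.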

[2] = test system: Jurkat (clone E6-1) cells, NFAT luciferase reporter; assay: Jurkat Reporter Assay (NFAT Luciferase); type: cell-based; conditions: Homo sapiens, anti-CD3 stimulation, 6 hr, read-out: Jurkat NFAT EC50
[3] = test system: Phospho-Zap70 (Y-319) in Jurkat wild-type (clone E6-1) cells; assay: Jurkat pZAP70 HTRF Assay; type: cell-based; conditions: Homo sapiens, anti-CD3 5 μg/ml, 3 hr, read-out: ZAP70 Jurkat EC50

Sequence of Recombinant human Cbl-b (aa 36-427) (Q13191 36-427): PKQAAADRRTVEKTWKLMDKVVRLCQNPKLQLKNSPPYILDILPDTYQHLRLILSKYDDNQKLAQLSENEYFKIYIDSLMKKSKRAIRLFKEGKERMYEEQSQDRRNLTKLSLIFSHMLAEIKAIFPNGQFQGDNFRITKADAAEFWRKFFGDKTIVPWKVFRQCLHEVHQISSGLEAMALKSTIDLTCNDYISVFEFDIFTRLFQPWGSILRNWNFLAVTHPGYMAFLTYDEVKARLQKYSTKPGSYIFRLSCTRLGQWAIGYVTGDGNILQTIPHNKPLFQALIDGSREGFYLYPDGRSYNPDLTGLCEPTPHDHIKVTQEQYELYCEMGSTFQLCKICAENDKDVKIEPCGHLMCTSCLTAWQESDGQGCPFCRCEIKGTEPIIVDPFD

SMILES	IC50 [1] [nM]	EC50 [2] [nM]	EC50 [3] [nM]
Cn1cnnc1-c1cc(F)ccc1-c1cc(C2CC2)nc(N2Cc3c(cc(COCC4(O)CCC4)cc3C(F)(F)F)C2=O)c1 [AFL-2, 2-{6-Cyclopropyl-4-[4-fluoro-2-(4-methyl-1,2,4-triazol-3-yl)phenyl]pyridin-2-yl}-6-{[(1-hydroxycyclobutyl)methoxy]methyl}-4-(trifluoromethyl)-3H-isoindol-1-one]	≤ 200	< 200	< 200
Cn1cnnc1-c1cc(F)ccc1-c1cccc(N2Cc3c(cc(CNCC4(O)CCC4)cc3C(F)(F)F)C2=O)c1 [AFN-3, 2-[4′-Fluoro-2′-(4-methyl-1,2,4-triazol-3-yl)-[1,1′-biphenyl]-3-yl]-6-({[(1-hydroxycyclobutyl)methyl]amino}methyl)-4-(trifluoromethyl)-3H-isoindol-1-one]	≤ 200	< 200	< 200
Cn1cnnc1-c1cc(F)ccc1-c1cc(C2CC2)nc(N2Cc3ccc(CN[C@@H]4CCC[C@@H]4O)cc3C2=O)c1 [AFO-2, 2-{6-Cyclopropyl-4-[4-fluoro-2-(4-methyl-1,2,4-triazol-3-yl)phenyl]pyridin-2-yl}-6-({[(1R,2S)-2-hydroxycyclopentyl]amino}methyl)-3H-isoindol-1-one]	≤ 200	< 200	< 200
Cn1cnnc1-c1cnn(C)c1-c1cc(C2CC2)nc(N2Cc3ccc(CNCC4(O)CCCC4)cc3C2=O)c1 [AFQ-3, 2-{6-Cyclopropyl-4-[2-methyl-4-(4-methyl-1,2,4-triazol-3-yl)pyrazol-3-yl]pyridin-2-yl}-6-({[(1-hydroxycyclopentyl)methyl]amino}methyl)-3H-isoindol-1-one]	≤ 200	< 200	< 200
CCNc1cc(-c2ccc(C#N)cc2-c2nncn2C)cc(N2Cc3c(cc(C(O)CN(C)C)cc3C(F)(F)F)C2=O)n1 (stereo not drawn) [AFR-7, 4-(2-{6-[2-(Dimethylamino)-1-hydroxyethyl]-1-oxo-4-(trifluoromethyl)-3H-isoindol-2-yl}-6-(ethylamino)pyridin-4-yl)-3-(4-methyl-1,2,4-triazol-3-yl) benzonitrile]	≤ 200	< 200	< 200
CC(=O)c1cc2c(c(C(F)(F)F)c1)CN(c1cc(-c3ccccc3-c3nncn3C)cc(C3CC3)n1)C2=O [AFS-1, 6-Acetyl-2-{6-cyclopropyl-4-[2-(4-methyl-1,2,4-triazol-3-yl)phenyl]pyridin-2-yl}-4-(trifluoromethyl)-3H-isoindol-1-one]	≤ 200	200 to 1000	10000 to 50000
Cn1cnnc1-c1cnn(C)c1-c1cc(C2CC2)nc(N2Cc3c(cc(COCC4(O)CCC4)cc3C(F)(F)F)C2=O)c1 [AFV-3, 2-{6-Cyclopropyl-4-[2-methyl-4-(4-methyl-1,2,4-triazol-3-yl)pyrazol-3-yl]pyridin-2-yl}-6-{[(1-hydroxycyclobutyl)methoxy]methyl}-4-(trifluoromethyl)-3H-isoindol-1-one]	≤ 200	< 200	200 to 1000
C=C(C)c1cc(-c2ccc(F)cc2-c2nncn2C)cc(N2Cc3ccc(CNCC4(O)CCC4)cc3C2=O)n1 [AFW-3, 2-{4-[4-Fluoro-2-(4-methyl-1,2,4-triazol-3-yl)phenyl]-6-(prop-1-en-2-yl)pyridin-2-yl}-6-({[(1-hydroxycyclobutyl)methyl]amino}methyl)-3H-isoindol-1-one]	≤ 200	< 200	< 200
CC(C)c1cc(-c2ccc(F)cc2-c2nncn2C)cc(N2Cc3ccc(CNCC4(O)CCC4)cc3C2=O)n1 [AFX-1, 2-{4-[4-Fluoro-2-(4-methyl-1,2,4-triazol-3-yl)phenyl]-6-isopropylpyridin-2-yl}-6-({[(1-hydroxycyclobutyl)methyl]amino}methyl)-3H-isoindol-1-one]	≤ 200	< 200	< 200
CCNc1cc(-c2ccc(F)cc2-c2nncn2C)cc(N2Cc3c(cc(CO[C@@H]4CCC[C@@H]4O)cc3C(F)(F)F)C2=O)n1 [AFZ-1, 2-[6-(Ethylamino)-4-[4-fluoro-2-(4-methyl-1,2,4-triazol-3-yl)phenyl]pyridin-2-yl]-6-({[(1R,2S)-2-hydroxycyclopentyl]oxy}methyl)-4-(trifluoromethyl)-3H-isoindol-1-one]	≤ 200	< 200	200 to 1000
Cn1cnnc1-c1cnn(C)c1-c1cc(C2CC2)nc(N2Cc3c(cc(CO[C@H]4CCC[C@H]4O)cc3C(F)(F)F)C2=O)c1 [AGA-1, 2-{6-Cyclopropyl-4-[2-methyl-4-(4-methyl-1,2,4-triazol-3-yl)pyrazol-3-yl]pyridin-2-yl}-6-({1[(1R,2S)-2-hydroxycyclopentyl]oxy}methyl)-4-(trifluoromethyl)-3H-isoindol-1-one]	≤ 200	< 200	200 to 1000
CCNc1cc(-c2ccc(F)cc2-c2nncn2C)cc(N2Cc3c(cc(COCC4(F)CCC4)cc3C(F)(F)F)C2=O)n1 [AGB-1, 2-[6-(Ethylamino)-4-[4-fluoro-2-(4-methyl-1,2,4-triazol-3-yl)phenyl]pyridin-2-yl]-6-{1[(1-fluorocyclobutyl)methoxy]methyl}-4-(trifluoromethyl)-3H-isoindol-1-one]	≤ 200	< 200	1000 to 10000
CCNc1cc(-c2ccc(C#N)cc2-c2nncn2C)cc(N2Cc3c(cc(CNC4CCCC4=O)cc3C(F)(F)F)C2=O)n1 (stereo not drawn) [AGC-5, 4-[2-(Ethylamino)-6-(1-oxo-6-{[(2-oxocyclopentyl)amino]methyl}-4-(trifluoromethyl)-3H-isoindol-2-yl)pyridin-4-yl]-3-(4-methyl-1,2,4-triazol-3-yl)benzonitrile]	≤ 200	< 200	200 to 1000
CCNc1cc(-c2ccc(C#N)cc2-c2nncn2C)cc(N2Cc3c(cc(CNCCOC4CC4)cc3C(F)(F)F)C2=O)n1 [AGD-2, 4-[2-(6-{[(2-Cyclopropoxyethyl)amino]methyl}-1-oxo-4-(trifluoromethyl)-3H-isoindol-2-yl)-6-(ethylamino)pyridin-4-yl]-3-(4-methyl-1,2,4-triazol-3-yl)benzonitrile]	≤ 200	< 200	< 200
CCNc1cc(-c2ccc(F)cc2-c2nncn2C)cc(N2Cc3c(cc(COCCO)cc3C(F)(F)F)C2=O)n1 [AGE-3, 2-[6-(Ethylamino)-4-[4-fluoro-2-(4-methyl-1,2,4-triazol-3-yl)phenyl]pyridin-2-yl]-6-[(2-hydroxyethoxy)methyl]-4-(trifluoromethyl)-3H-isoindol-1-one]	≤ 200	< 200	< 200
CCNc1cc(-c2c(-c3nncn3C)cnn2C)cc(N2Cc3c(cc(COCC4(N)CCC4)cc3C(F)(F)F)C2=O)n1 [AGF-3, 6-{[(1-Aminocyclobutyl)methoxy]methyl}-2-[6-(ethylamino)-4-[2-methyl-4-(4-methyl-1,2,4-triazol-3-yl)pyrazol-3-yl]pyridin-2-yl]-4-(trifluoromethyl)-3H-isoindol-1-one]	≤ 200	200 to 1000	1000 to 10000
Cn1cnnc1-c1cc(F)ccc1-c1cc(C2CC2)nc(N2Cc3c(cc(COCC4(N)CCC4)cc3C(F)(F)F)C2=O)c1 [AGG-2, 6-{1[(1-Aminocyclobutyl)methoxy]methyl}-2-{6-cyclopropyl-4-[4-fluoro-2-(4-methyl-1,2,4-triazol-3-yl)phenyl]pyridin-2-yl}-4-(trifluoromethyl)-3H-isoindol-1-one]	≤ 200	< 200	< 200
Cn1cnnc1-c1cc(F)ccc1-c1cc(C2CC2)nc(N2Cc3ccc(CO)cc3C2=O)c1 [AGH-2, 2-{6-Cyclopropyl-4-[4-fluoro-2-(4-methyl-1,2,4-triazol-3-yl)phenyl]pyridin-2-yl}-6-(hydroxymethyl)-3H-isoindol-1-one]	≤ 200	< 200	1000 to 10000
Cn1cnnc1-c1cc(F)ccc1-c1cc(C2CC2)nc(N2Cc3ccc(COCC4(N)CCC4)cc3C2=O)c1 [AGI-3, 6-{1[(1-Aminocyclobutyl)methoxy]methyl}-2-{6-cyclopropyl-4-[4-fluoro-2-(4-methyl-1,2,4-triazol-3-yl)phenyl]pyridin-2-yl}-3H-isoindol-1-one]	≤ 200	< 200	< 200
CCNc1cc(-c2ccc(C#N)cc2-c2nncn2C)cc(N2Cc3c(cc(COCC4(N)CCC4)cc3C(F)(F)F)C2=O)n1 [AGJ-2, 4-[2-(6-{[(1-aminocyclobutyl)methoxy]methyl}-1-oxo-4-(trifluoromethyl)-3H-isoindol-2-yl)-6-(ethylamino)pyridin-4-yl]-3-(4-methyl-1,2,4-triazol-3-yl)benzonitrile]	≤ 200	< 200	1000 to 10000
Cn1cnnc1-c1cc(C#N)ccc1-c1cc(C2CC2)nc(N2Cc3c(cc(C4(O)CCC4)cc3C(F)(F)F)C2=O)c1 [AGM-5, 4-{2-Cyclopropyl-6-[6-(1-hydroxycyclobutyl)-1-oxo-4-(trifluoromethyl)-3H-isoindol-2-yl]pyridin-4-yl}-3-(4-methyl-1,2,4-triazol-3-yl)benzonitrile]	≤ 200	< 200	200 to 1000
Cn1cnnc1-c1cc(C#N)ccc1-c1cc(C2CC2)nc(N2Cc3c(cc(CNCCOC(F)(F)F)cc3C(F)(F)F)C2=O)c1 [AGN-3, 4-{2-Cyclopropyl-6-[1-oxo-6-({[2-(trifluoromethoxy)ethyl]amino}methyl)-4-(trifluoromethyl)-3H-isoindol-2-yl]pyridin-4-yl}-3-(4-methyl-1,2,4-triazol-3-yl)benzonitrile]	≤ 200	< 200	200 to 1000
